Results on 1 substance are retold here after US20170014409A1, “TREATING INFLAMMATION USING SERELAXIN” (priority 2012, published 2017).

The conditions of data set [1]: wide range of doses; up to six months of continuous treatment; cited from earlier work.
In the next data set the test system is sST-2. As to the kind of experiment: Serum sST-2 measured by EIA kit (PRESAGE sST-2 assay) in heart failure subjects treated 48 hours with serelaxin or placebo. Type of data set: in vivo, human. The method, then: Samples were collected from subjects enrolled in a multi-center, randomized, double-blind, placebo-controlled clinical trial, which was conducted to determine the safety and efficacy of serelaxin (recombinant human serelaxin) in subjects with heart failure, as described in Teerlink et al. (supra).
Serum was collected from 218 subjects (supra) for whom a baseline level of sST-2 as well as a post-serelaxin treatment level of sST-2 was determined. sST-2 was found at a lower limit of quantitation of 3.1 ng/ml and an upper limit of quantitation of 200 ng/ml. sST-2 was measured via the EIA kit (see Example 7 for more detail) and exact clinical measurements are summarized in Table 1 (see attached Table 1).
The difference between the placebo group and each of the serelaxin dose groups was statistically significant at 48 hours.
At baseline, geometric means across treatment groups ranged from 47 ng/ml to 60 ng/ml, i.e., 55 percent of the treated subjects had sST-2 concentrations that exceeded the normal range of 33.5 ng/ml in females and 49.3 ng/ml in males. […] This established that serelaxin transiently upregulates sST-2.
FIG. 3 depicts a between-treatment analysis of sST-2 by visit, comparing a change from baseline in sST-2 geometric means between the serelaxin groups compared to the placebo group at 3 time points. […] The differences subsided so that by Day 5, changes from baseline in 3 of the 4 serelaxin groups, as well as the pooled serelaxin group, were no different than change from baseline in the placebo group. By Day 14, the changes from baseline in all of the serelaxin groups were not different from change in the placebo group. As above, this establishes that serelaxin transiently up-regulates sST-2.
sST-2 levels were measured with the EIA Test Kit & PRESAGE sST-2 Assay (from Critical Diagnostics, NY) according to the manufacturer's instructions. Alternatively, other assays could be used such as the QUANTIKINE ST2/IL-1 R4 Immunoassay (from R&D Systems, Inc., MN).
The EIA test kit is a quantitative sandwich monoclonal ELISA in a 96 well plate format for measurement of sST-2 in serum or plasma. Diluted serum from 218 subjects was loaded into the appropriate wells in the anti-ST-2 antibody coated plate and incubated for the prescribed time. Following a series of steps, where reagents were washed from the plate, and additional reagents were added and subsequently washed out, the analyte sST-2 was detected by addition of a colorimetric reagent. The resulting signal was measured spectroscopically at 450 nm. The assay was conducted according to the parameters described in the assay description of the EIA test kit with all prescribed reagents and materials.

For the substance serelaxin, the “safety in nonclinical toxicology studies” value in data set [1] is listed as “safe”. Besides, the “change from baseline in sST-2 concentrations at 48 hours” value in the data set on sST-2 (48 hours of treatment, all serelaxin dose groups, placebo decreased 30%, p<0.05 for all serelaxin groups vs. placebo) was “increase from baseline”. For the same substance, the “change from baseline in sST-2 geometric means vs. placebo group at 48 hours” value with sST-2 (48 hours, all serelaxin groups and pooled serelaxin group, between-treatment analysis (FIG. 3)) is “significantly different”. Further, in the data set with sST-2 (Day 5, 3 of the 4 serelaxin groups and pooled serelaxin group), the “change from baseline in sST-2 geometric means vs. placebo group at Day 5” value is “no different”. For the same substance, the “change from baseline in sST-2 geometric means vs. placebo group at Day 14” value in the data set with sST-2 (Day 14, all serelaxin groups) is “not different”.
